Experiment [1] has as its system p53 target genes (BAX, PUMA, NOXA, CDKN1A) in ARID1A-mutated TOV21G cells. The experiment in a line: RNA-seq of p53 target genes. Particulars: 1.25 μM. It counts as cell-based, human. From the text: RNA was extracted and utilized for next generation sequencing (RNA-seq). Expression of p53 target genes known to regulate apoptosis such as BAX, PUMA and NOXA, and known to regulate cell cycle arrest such as CDKN1A were not altered by HDAC6 inhibition in RNA-seq analysis.

Experiment [2] relates to ARID1A wild-type RMG1 tumors. As to the kind of experiment: intrabursal orthotopic xenograft, ARID1A wild-type RMG1. It counts as in vivo, mice. The procedure:
The consecutive sections of tumors dissected from the indicated treatment groups were subjected to immunohistochemical staining for HDAC6, Ki67, cleaved caspase 3 and p53K120AC. Scale bar=100 μm.
Histological score (H-score) was calculated for 5 separate fields from 6 tumors from 6 individual mice from each of the indicated groups. Error bars represent S.E.M. The p-values were calculated via two-tailed t-test.
Immunofluorescence and immunohistochemical staining was performed as follows. Immunofluorescence was performed after 48 hours as indicated by fixing samples in 4% paraformaldehyde and permeabilizing with 0.5% Triton-X. Samples were incubated with primary antibodies for 2 hours at room temperature, highly cross absorbed secondary antibodies (Invitrogen) for 1 hour at room temperature and mounted with prolong anti-fade reagent (Invitrogen). […] Expression of the stained markers was scored using a histologic score (H score) as previously described. […]
The intrabursal orthotopic xenograft in vivo model was performed as described previously (Bitler et al. Nat. Med. 2015, 21, 231-238; Bitler et al. Cancer Research 2011, 71, 6184-6194). […] Images were analyzed using Live Imaging 4.0 software. At end of the experiments, tumors were surgically dissected and tumor burden was calculated based on tumor weight. Intraperitoneally disseminated tumor nodules were quantified.

Experiment [3] has as its system cells derived from Apc−/−/Pten−/−/Arid1a−/− and Apc−/−/Pten−/− tumours. As to the kind of experiment: ACY1215 sensitivity of cells derived from mouse endometrioid tumours. It counts as cell-based.
Experiment [4] has as its system OVCA429 cells. The experiment in a line: colony formation assay, control and ARID1A CRISPR OVCA429 cells. It counts as cell-based, human. To be noted: 1.25 μM. The protocol: FIG. 72 illustrates control and ARID1A CRISPR OVCA429 cells treated with or without 1.25 μM ACY1215 in a colony formation assay.
FIG. 73 illustrates the quantification of ARID1A CRISPR OVCA429 cells treated with or without 1.25 μM ACY1215 in a colony formation assay; n=4 independent experiments.
Generation of ARID1A CRISPR OVCA429 cells. OVCA429 cells were transfected with CRISPR-ARID1A (pSpCas9(BB)-2A-Puro (PX459)). The ARID1A gRNA sequence is: 5′-[…]-3′ (SEQ ID NO:33). Fugene6 transfection reagent (Promega) was used as per manufacturer's specifications. Clonal populations for the loss of ARID1A expression were screened through immunoblot.
Colony formation assays were performed as follows. Cell lines were infected with lentivirus pLKO.1-shRNAs or pLKO.1-control with puromycin selection marker. Infected cells were selected with 1 μg/mL of puromycin for 72 hours and the selected cells were seeded in 12-well or 24-well plates. Cell medium was changed every three days with appropriate drug doses for 14 days or until control wells became confluent. Colonies were washed twice with PBS and fixed with 10% methanol and 10% acetic acid in distilled water. Fixed colonies were stained with 0.005% crystal violet. Integrated density was measured using NIH ImageJ software.

The subject of experiment [5] is ARID1A wild-type RMG1 cells with or without shARID1A. The experiment in a line: mitochondrial membrane potential (TMRE, FACS), RMG1. It counts as cell-based, human. Particulars: 1.25 μM. The protocol:
The mitochondria membrane potential was quantified by TMRE using FACS analysis. Data was collected via FACS and is representative of 3 independent experiments.
Error bars represent standard error mean. The p-value was calculated via two-tailed t-test.
(§1) Annexin V and mitochondria membrane potentials were measured as follows. Phosphatidylserine externalization was detected using an Annexin V staining kit (Life Technologies) following the manufacturer's instructions. To measure change in mitochondria membrane potential cells were treated with 200 nM of tetramethylrhodamine, ethyl ester (TMRE; Abcam) for 15 min at 37° C. Annexin V and TMRE-positive cells were detected using the LSR18 and analyzed with the FlowJo software module.

Experiment [6] has as its system ARID1A wild-type RMG1 cells. As to the kind of experiment: apoptosis (Annexin V, cleaved caspase 3, cleaved PARP p85) in ARID1A wild-type cells. It counts as cell-based, human. Particulars: 1.25 μM. The protocol:
Expression of apoptotic markers cleaved caspase 3 and cleaved PARP p85 by immunoblot. GAPDH expression was used as a loading control.
For immunoblotting, protein was isolated as described in Bitler et al. Nat. Med. 2015, 21, 231-238. Briefly, protein was extracted with RIPA buffer (150 mM NaCl, 1% NP40, 0.5% sodium deoxycholate, 0.1% SDS, 50 mM Tris pH 8.0, and 1 mM PMSF). Protein was separated on a SDS-PAGE and transferred to PVDF membrane. For immunoblot of p53 post-translation modifications, cells were treated with a proteasome inhibitor MG132 (10 μM) to stabilize p53 protein.
as §1

`O=C(CCCCCCNC(=O)c1cnc(N(c2ccccc2)c2ccccc2)nc1)NO` [rocilinostat, 2-(diphenylamino)-N-(7-(hydroxyamino)-7-oxoheptyl)pyrimidine-5-carboxamide]: the “expression of p53 target genes (BAX, PUMA, NOXA, CDKN1A)” value in experiment [1] is on record as “not altered”. The “growth, tumor burden, dissemination of ARID1A wild-type tumors” value in experiment [2] (50 mg/kg daily, 3 weeks) was “did not significantly affect the growth, tumor burden or dissemination”. Also, the “expression of Ki67, cleaved caspase 3, p53K120Ac (IHC)” value in experiment [2] (ARID1A wild-type tumors) is “did not affect the expression of Ki67, cleaved caspase 3, or p53K120Ac”. The “sensitivity of Apc−/−/Pten−/−/Arid1a−/− tumour cells compared with Apc−/−/Pten−/− tumour cells” value in experiment [3] is “more sensitive”. For the same compound, the “effect of ARID1A knockout on sensitivity” value in experiment [4] is “significantly increased the sensitivity”. Also, in experiment [5], the “mitochondrial membrane potential, ARID1A knockdown compared with controls” value was “significantly decreased”. Besides, in experiment [6], the “apoptosis in ARID1A wild type cells” value is given as “did not induce a significant increase in apoptosis”. Further, the “markers of apoptosis in ARID1A wild-type cells with ARID1A knockdown” value in experiment [6] (shARID1A) is reported as “significantly increased markers of apoptosis”.

These data come from patent US20190192521A1, “Methods of Treating Arid1A-Mutated Cancers With HDAC6 Inhibitors and EZH2 Inhibitors” (The Wistar Institute of Anatomy and Biology, priority 2016, published 2019).
